Entries after “also recorded” stand apart in the source; their conditions may differ.
Test: Phase I dose escalation study: safety, tolerability, DLT and MTD
Assay type: in vivo

Cc1cccc2c1NC(=O)[C@@H](NC(=O)[C@H](CCC(F)(F)F)[C@H](CCC(F)(F)F)C(N)=O)N=C2c1cccc(F)c1 [BMS-986115]
Rash maculopapular (drug related AE, all grades) (Arm A QD 0.6 mg (N = 2)): 0 n (%) | Sinusitis (drug related AE, all grades) (Arm A QD 0.6 mg (N = 2)): 0 n (%) | Urticaria (drug related AE, Grade 3 and 4) (Arm A QD 0.6 mg (N = 2)): 0 n (%) | Vision blurred (drug related AE, all grades) (Arm A QD 0.6 mg (N = 2)): 0 n (%) | Vomiting (drug related AE, Grade 3 and 4) (Arm A QD 0.6 mg (N = 2)): 0 n (%) | Vomiting (drug related AE, all grades) (Arm A QD 0.6 mg (N = 2)): 1 (50) n (%) | Weight decreased (drug related AE, all grades) (Arm A QD 0.6 mg (N = 2)): 0 n (%) | No. of patients with DLTs (Arm A QD 0.6 mg, 2 DLT evaluable patients): 0 | Abdominal distension (drug related AE, all grades) (Arm A QD 1.2 mg (N = 6)): 0 n (%) | Abdominal pain (drug related AE, Grade 3 and 4) (Arm A QD 1.2 mg (N = 6)): 0 n (%) | Abdominal pain (drug related AE, all grades) (Arm A QD 1.2 mg (N = 6)): 0 n (%) | Blood creatinine increased (drug related AE, all grades) (Arm A QD 1.2 mg (N = 6)): 0 n (%) | Colitis (drug related AE, Grade 3 and 4) (Arm A QD 1.2 mg (N = 6)): 1 (17) n (%) | Cough (drug related AE, Grade 3 and 4) (Arm A QD 1.2 mg (N = 6)): 0 n (%) | Cough (drug related AE, all grades) (Arm A QD 1.2 mg (N = 6)): 0 n (%) | Decreased Appetite (drug related AE, Grade 3 and 4) (Arm A QD 1.2 mg (N = 6)): 0 n (%) | Decreased Appetite (drug related AE, all grades) (Arm A QD 1.2 mg (N = 6)): 2 (33) n (%) | Dehydration (drug related AE, Grade 3 and 4) (Arm A QD 1.2 mg (N = 6)): 0 n (%) | Dehydration (drug related AE, all grades) (Arm A QD 1.2 mg (N = 6)): 2 (33) n (%) | Dermatitis acneiform (drug related AE, all grades) (Arm A QD 1.2 mg (N = 6)): 0 n (%) | Diarrhoea (drug related AE, Grade 3 and 4) (Arm A QD 1.2 mg (N = 6)): 1 (17) n (%) | Diarrhoea (drug related AE, all grades) (Arm A QD 1.2 mg (N = 6)): 6 (100) n (%) | Dry mouth (drug related AE, all grades) (Arm A QD 1.2 mg (N = 6)): 1 (17) n (%) | Dry skin (drug related AE, all grades) (Arm A QD 1.2 mg (N = 6)): 1 (17) n (%) | Dysgeusia (drug related AE, all grades) (Arm A QD 1.2 mg (N = 6)): 2 (33) n (%) | Dyspepsia (drug related AE, all grades) (Arm A QD 1.2 mg (N = 6)): 1 (17) n (%) | Dysphonia (drug related AE, all grades) (Arm A QD 1.2 mg (N = 6)): 0 n (%) | Fatigue (drug related AE, Grade 3 and 4) (Arm A QD 1.2 mg (N = 6)): 0 n (%) | Fatigue (drug related AE, all grades) (Arm A QD 1.2 mg (N = 6)): 2 (33) n (%) | Flatulence (drug related AE, all grades) (Arm A QD 1.2 mg (N = 6)): 0 n (%) | Hypocalcaemia (drug related AE, Grade 3 and 4) (Arm A QD 1.2 mg (N = 6)): 0 n (%) | Hypocalcaemia (drug related AE, all grades) (Arm A QD 1.2 mg (N = 6)): 0 n (%) | Hypokalaemia (drug related AE, Grade 3 and 4) (Arm A QD 1.2 mg (N = 6)): 1 (17) n (%) | Hypokalaemia (drug related AE, all grades) (Arm A QD 1.2 mg (N = 6)): 3 (50) n (%) | Hyponatraemia (drug related AE, Grade 3 and 4) (Arm A QD 1.2 mg (N = 6)): 0 n (%) | Hyponatraemia (drug related AE, all grades) (Arm A QD 1.2 mg (N = 6)): 0 n (%) | Hypophosphataemia (drug related AE, Grade 3 and 4) (Arm A QD 1.2 mg (N = 6)): 2 (33) n (%) | Hypophosphataemia (drug related AE, all grades) (Arm A QD 1.2 mg (N = 6)): 6 (100) n (%) | Ileus (drug related AE, Grade 3 and 4) (Arm A QD 1.2 mg (N = 6)): 0 n (%) | Increased upper airway secretion (drug related AE, all grades) (Arm A QD 1.2 mg (N = 6)): 0 n (%) | Laryngeal pain (drug related AE, all grades) (Arm A QD 1.2 mg (N = 6)): 0 n (%) | Leucocytosis (drug related AE, Grade 3 and 4) (Arm A QD 1.2 mg (N = 6)): 0 n (%) | Mouth ulceration (drug related AE, all grades) (Arm A QD 1.2 mg (N = 6)): 1 (17) n (%) | Nausea (drug related AE, Grade 3 and 4) (Arm A QD 1.2 mg (N = 6)): 0 n (%) | Nausea (drug related AE, all grades) (Arm A QD 1.2 mg (N = 6)): 4 (67) n (%) | Pruritus (drug related AE, Grade 3 and 4) (Arm A QD 1.2 mg (N = 6)): 0 n (%) | Pruritus (drug related AE, all grades) (Arm A QD 1.2 mg (N = 6)): 0 n (%) | Pulmonary embolism (drug related AE, Grade 3 and 4) (Arm A QD 1.2 mg (N = 6)): 0 n (%) | Rash (drug related AE, all grades) (Arm A QD 1.2 mg (N = 6)): 3 (50) n (%) | Rash maculopapular (drug related AE, all grades) (Arm A QD 1.2 mg (N = 6)): 0 n (%) | Sinusitis (drug related AE, all grades) (Arm A QD 1.2 mg (N = 6)): 1 (17) n (%) | Urticaria (drug related AE, Grade 3 and 4) (Arm A QD 1.2 mg (N = 6)): 0 n (%) | Vision blurred (drug related AE, all grades) (Arm A QD 1.2 mg (N = 6)): 0 n (%) | Vomiting (drug related AE, Grade 3 and 4) (Arm A QD 1.2 mg (N = 6)): 0 n (%) | Vomiting (drug related AE, all grades) (Arm A QD 1.2 mg (N = 6)): 2 (33) n (%) | Weight decreased (drug related AE, all grades) (Arm A QD 1.2 mg (N = 6)): 1 (17) n (%) | Description of DLT (Arm A QD 1.5 mg): Gr 3 nausea; also recorded: G3 nausea | Description of study drug toxicity that led to treatment discontinuation (Arm A QD 1.5 mg): G3 Nausea concurrent with G2 diarrhoea (N = 1); also recorded: G2 Dermatitis acneiform (N = 1) | Abdominal distension (drug related AE, all grades) (Arm A QD 1.5 mg (N = 7)): 1 (14) n (%) | Abdominal pain (drug related AE, Grade 3 and 4) (Arm A QD 1.5 mg (N = 7)): 1 (14) n (%) | Abdominal pain (drug related AE, all grades) (Arm A QD 1.5 mg (N = 7)): 1 (14) n (%) | Blood creatinine increased (drug related AE, all grades) (Arm A QD 1.5 mg (N = 7)): 0 n (%) | Colitis (drug related AE, Grade 3 and 4) (Arm A QD 1.5 mg (N = 7)): 0 n (%) | Cough (drug related AE, Grade 3 and 4) (Arm A QD 1.5 mg (N = 7)): 0 n (%) | Cough (drug related AE, all grades) (Arm A QD 1.5 mg (N = 7)): 2 (29) n (%) | Decreased Appetite (drug related AE, Grade 3 and 4) (Arm A QD 1.5 mg (N = 7)): 0 n (%) | Decreased Appetite (drug related AE, all grades) (Arm A QD 1.5 mg (N = 7)): 1 (14) n (%) | Dehydration (drug related AE, Grade 3 and 4) (Arm A QD 1.5 mg (N = 7)): 0 n (%) | Dehydration (drug related AE, all grades) (Arm A QD 1.5 mg (N = 7)): 0 n (%) | Dermatitis acneiform (drug related AE, all grades) (Arm A QD 1.5 mg (N = 7)): 4 (57) n (%)

— paper PMC7523345 (Investigational new drugs, 2018)
